Patent US11053226B2, “KRAS G12C inhibitors and methods of using the same” (Amgen Inc., priority 2018, dated 2021)
pIC50: −log10 of the molar value. Like-named read-outs stand apart in the source and are kept apart here.

Columns and labels:
[1] = tested on: Phosphorylation of ERK1/2 in MIA PaCa-2 cells; experiment: Phospho-ERK1/2 MSD Assay; type: cell-based; conditions: MiaPaCa-2 cells
Description: (§1) For compounds in Table 9, the following assay conditions were employed:
Phospho-ERK1/2 MSD Assay:
Sixteen hours prior to compound treatment, MIA PaCa-2 cells were seeded in 96-well cell culture plates at a density of 25,000 cells/well and incubated at 37° C., 5% CO2. […] Following compound treatment, cells were stimulated with 10 ng/mL EGF (Roche 11376454001) for 10 min, washed with ice-cold Dulbecco's phosphate-buffered saline, no Ca^2+ or Mg^2+ (ThermoFisher Scientific 14190144), and then lysed in RIPA buffer (50 mM Tris-HCl pH 7.5, 1% Igepal, 0.5% sodium deoxycholate, 150 mM NaCl, and 0.5% sodium dodecyl sulfate) containing protease inhibitors (Roche 4693132001) and phosphatase inhibitors (Roche 4906837001). […] Assay plates were read on a Meso Scale Discovery Sector Imager 6000, and data were analyzed using a 4-parameter logistic model to calculate IC50 values.

[2] = biological target: GDP-bound KRAS protein (aa 1-169), containing both G12C and C118A amino acid substitutions (Homo sapiens (Human), UniProt P01116, C118A/G12C); experiment: Coupled Nucleotide Exchange Assay; type: biochemical
GDP-bound KRAS protein (aa 1-169), containing both G12C and C118A amino acid substitutions, sequence (P01116 other isoform, or with tags, fused parts or gaps G12C/C118A): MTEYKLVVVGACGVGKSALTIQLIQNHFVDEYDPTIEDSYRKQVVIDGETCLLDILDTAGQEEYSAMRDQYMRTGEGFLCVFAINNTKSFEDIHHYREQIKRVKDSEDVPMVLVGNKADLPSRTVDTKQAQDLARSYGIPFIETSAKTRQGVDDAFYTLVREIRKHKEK
Description: as §1
Coupled Nucleotide Exchange Assay:
The assay plates were then read on a PerkinElmer EnVision Multilabel Reader, using AlphaScreen® technology, and data were analyzed using a 4-parameter logistic model to calculate IC50 values.

[3] = tested on: Phosphorylation of ERK1/2 in A549 cells; experiment: Phospho-ERK1/2 MSD Assay (A549); type: cell-based; conditions: read-out: pERK IC50 (4 h, A549), 4 h compound treatment
[4] = Homo sapiens, MIA PaCa-2, 4 h, read-out: pERK IC50 (4 h, MiaPaCa-2), 4 h compound treatment
[5] = read-out: Coupled Exchange IC50 (2 h), 2 h compound pre-incubation
[6] = read-out: Coupled Exchange IC50 (20 h), 20 h compound pre-incubation

SMILES | pIC50 [1, 4] | Coupled Exchange IC50 (5 min) ([2]; 5 min compound pre-incubation) | Coupled Exchange IC50 (2 h) ([2]; 2 h compound pre-incubation) | pIC50 ([3]; Homo sapiens, A549, 4 h) | pIC50 [2, 5] | pIC50 ([2]; read-out: Coupled Exchange IC50 (5 min), 5 min compound pre-incubation) | pIC50 [2, 6] | pIC50 ([1]; read-out: pERK IC50 (4 h, MiaPaCa-2), 4 h compound treatment) | pIC50 [3]
C=CC(=O)N1CC(NC(=O)Cn2c(CC)c(C(=O)N3CCc4c(ccnc4OC)C3)c3cc(Cl)cc(C)c32)C1 [Example 1-1, 2-(5-Chloro-2-ethyl-3-((5-methoxy-3,4-dihydro-2,6-naphthyridin-2(1H)-yl)carbonyl)-7-methyl-1H-indol-1-yl)-N-(1-(2-propenoyl)-3-azetidinyl)acetamide] | 7.05 | 200 nM | 70 nM | < 4.00 | – | – | – | – | –
C=CC(=O)N1CC(NC(=O)Cn2c(CC)c(C(=O)N3CCc4c(cccc4OC)C3)c3cc(Cl)cc(C)c32)C1 [Example 1-2, 2-(5-Chloro-2-ethyl-3-((5-methoxy-3,4-dihydro-2(1H)-isoquinolinyl)carbonyl)-7-methyl-1H-indol-1-yl)-N-(1-(2-propenoyl)-3-azetidinyl)acetamide] | 6.89 | – | – | < 4.00 | 7.22 | – | – | – | –
C=CC(=O)N1CC(NC(=O)Cn2c(CC)c(C(=O)N3CCN(c4ccc(C#N)cn4)C[C@H]3C)c3cc(Cl)cc(C)c32)C1 [Example 1-3, 2-(5-Chloro-3-(((2R)-4-(5-cyano-2-pyridinyl)-2-methyl-1-piperazinyl)carbonyl)-2-ethyl-7-methyl-1H-indol-1-yl)-N-(1-(2-propenoyl)-3-azetidinyl)acetamide] | 5.88 | – | – | < 4.00 | 6.82 | – | – | – | –
C=CC(=O)N1CC(NC(=O)Cn2c(C3CC3)c(C(=O)N3CCc4c(ccnc4OC)C3)c3cc(Cl)cc(C)c32)C1 [Example 1-4, 2-(5-Chloro-2-cyclopropyl-3-((5-methoxy-3,4-dihydro-2,6-naphthyridin-2(1H)-yl)carbonyl)-7-methyl-1H-indol-1-yl)-N-(1-(2-propenoyl)-3-azetidinyl)acetamide] | 6.82 | – | – | < 4.00 | 7.10 | 6.57 | 8.00 | – | –
C=CC(=O)N1CC(NC(=O)Cn2c(CC3CC3)c(C(=O)N3CCc4c(cccc4OC)C3)c3cc(Cl)cc(C)c32)C1 [Example 1-5, 2-(5-Chloro-2-(cyclopropylmethyl)-3-((5-methoxy-3,4-dihydro-2(1H)-isoquinolinyl)carbonyl)-7-methyl-1H-indol-1-yl)-N-(1-(2-propenoyl)-3-azetidinyl)acetamide] | 6.82 | – | – | < 4.00 | 7.10 | – | – | – | –
C=CC(=O)N1CC(NC(=O)Cn2c(C3CC3)c(C(=O)N3CCOC4(CCC4)C3)c3cc(Cl)cc(C)c32)C1 [Example 1-6, 2-(5-Chloro-2-cyclopropyl-7-methyl-3-(5-oxa-8-azaspiro[3.5]nonan-8-ylcarbonyl)-1H-indol-1-yl)-N-(1-(2-propenoyl)-3-azetidinyl)acetamide] | 6.17 | – | – | < 4.00 | 6.14 | – | – | – | –
C=CC(=O)N1CC(NC(=O)Cn2c(C)c(C(=O)N3CCc4c(cccc4OC)C3)c3cc(Br)cc(C)c32)C1 [Example 2-1, 2-(5-Bromo-3-((5-methoxy-3,4-dihydro-2(1H)-isoquinolinyl)carbonyl)-2,7-dimethyl-1H-indol-1-yl)-N-(1-(2-propenoyl)-3-azetidinyl)acetamide] | 6.52 | – | – | < 4.00 | 6.96 | – | 6.96 | – | –
C=CC(=O)N1CC(NC(=O)Cn2c(C)c(C(=O)N3CCc4ccccc4[C@H]3C)c3cc(Br)cc(C)c32)C1 [Example 2-2-1, 2-(5-Bromo-2,7-dimethyl-3-(((1R)-1-methyl-3,4-dihydro-2(1H)-isoquinolinyl)carbonyl)-1H-indol-1-yl)-N-(1-(2-propenoyl)-3-azetidinyl)acetamide] | – | – | – | – | 6.80 | – | – | 6.25 | 4.33
C=CC(=O)N1CC(NC(=O)Cn2c(C)c(C(=O)N3CCc4ccccc4[C@@H]3C)c3cc(Br)cc(C)c32)C1 [Example 2-2-2, 2-(5-Bromo-2,7-dimethyl-3-(((1S)-1-methyl-3,4-dihydro-2(1H)-isoquinolinyl)carbonyl)-1H-indol-1-yl)-N-(1-(2-propenoyl)-3-azetidinyl)acetamide] | 5.52 | – | – | 4.21 | 6.38 | – | – | – | –
C=CC(=O)N1CC(NC(=O)Cn2c(C3CC3)c(C(=O)N3CCc4c(cccc4OC)C3)c3cc(Br)ccc32)C1 [Example 3-2, 2-(5-Bromo-2-cyclopropyl-3-((5-methoxy-3,4-dihydro-2(1H)-isoquinolinyl)carbonyl)-1H-indol-1-yl)-N-(1-(2-propenoyl)-3-azetidinyl)acetamide] | 6.22 | – | – | 4.28 | 6.85 | – | – | – | –
C=CC(=O)N1CC(N(C)C(=O)Cn2c(CC)c(C(=O)N3CCc4c(ccnc4OC)C3)c3cc(Cl)cc(C)c32)C1 [Example 4-1, 2-(5-Chloro-2-ethyl-3-((5-methoxy-3,4-dihydro-2,6-naphthyridin-2(1H)-yl)carbonyl)-7-methyl-1H-indol-1-yl)-N-methyl-N-(1-(2-propenoyl)-3-azetidinyl)acetamide] | 6.89 | – | – | < 4.00 | 6.92 | – | – | – | –
C=CC(=O)N1CC(N(C)C(=O)Cn2c(CC)c(C(=O)N3CCc4c(cccc4OC)C3)c3cc(Cl)cc(C)c32)C1 [Example 4-2, 2-(5-Chloro-2-ethyl-3-((5-methoxy-3,4-dihydro-2(1H)-isoquinolinyl)carbonyl)-7-methyl-1H-indol-1-yl)-N-methyl-N-(1-(2-propenoyl)-3-azetidinyl)acetamide] | 6.68 | – | – | < 4.00 | 6.82 | – | – | – | –
C=CC(=O)N1CC(N(C)C(=O)Cn2c(C3CC3)c(C(=O)N3CCc4c(cccc4OC)C3)c3cc(Cl)cc(C)c32)C1 [Example 4-3, 2-(5-Chloro-2-cyclopropyl-3-((5-methoxy-3,4-dihydro-2(1H)-isoquinolinyl)carbonyl)-7-methyl-1H-indol-1-yl)-N-methyl-N-(1-(2-propenoyl)-3-azetidinyl)acetamide] | 6.82 | – | – | 4.13 | 6.92 | – | – | – | –
C=CC(=O)N1CC(N(C)C(=O)Cn2c(CC3CC3)c(C(=O)N3CCc4c(cccc4OC)C3)c3cc(Cl)cc(C)c32)C1 [Example 4-4, 2-(5-Chloro-2-(cyclopropylmethyl)-3-((5-methoxy-3,4-dihydro-2(1H)-isoquinolinyl)carbonyl)-7-methyl-1H-indol-1-yl)-N-methyl-N-(1-(2-propenoyl)-3-azetidinyl)acetamide] | 6.74 | – | – | 4.53 | 7.00 | – | – | – | –
C=CC(=O)N1CC(N(C)C(=O)Cn2c(C)c(C(=O)N3CCc4c(cccc4OC)C3)c3cc(Br)cc(C)c32)C1 [Example 4-5, 2-(5-Bromo-3-((5-methoxy-3,4-dihydro-2(1H)-isoquinolinyl)carbonyl)-2,7-dimethyl-1H-indol-1-yl)-N-methyl-N-(1-(2-propenoyl)-3-azetidinyl)acetamide] | 6.57 | – | – | < 4.00 | 7.05 | – | – | – | –
C=CC(=O)N1CC(N(C)C(=O)Cn2c(CC)c(C(=O)N3CCN(c4ccc(C#N)cn4)C[C@H]3C)c3cc(Cl)cc(C)c32)C1 [Example 4-6, 2-(5-Chloro-3-(((2R)-4-(5-cyano-2-pyridinyl)-2-methyl-1-piperazinyl)carbonyl)-2-ethyl-7-methyl-1H-indol-1-yl)-N-methyl-N-(1-(2-propenoyl)-3-azetidinyl)acetamide] | 6.14 | – | – | 4.06 | 6.89 | – | – | – | –
